Assay results as given in patent US11653649B2, “Antimicrobial composition including a dihydroxamic acid and methods of inhibiting microbial growth utilizing the same” (Kimberly-Clark Worldwide, Inc., priority 2017, dated 2023).
Marks after values point to notes of the source that are not given here.

Tests used:
[1] = tested on: Pseudomonas aeruginosa (ATCC 9027); test: Anti-bacterial MIC, microbroth dilution; assay type: cell-based; conditions: for MIC v. P. aeruginosa: Tables 4 and 5, rounded values, wt %; for MIC (%) P. aeruginosa: pH 4.5, CAMHB, 37° C., 24 hours
Protocol: (§1) Method: Microbroth Dilution Method (96-well format).
(§2) Solvent: Sterile MilliQ water and 0.1 M Citrate Buffer pH 4.5
(§3) Media used: • Bacterial: Cation-Adjusted Mueller-Hinton Broth (CAMHB) • Fungi: RPMI-1640
(§4) Bacteria • Incubation Temperature: 37° C. • Incubation Time: 24 hours • Inoculum Size: 5×10(5) cfu/mL • Strains: • Staphylococcus aureus (ATCC 6538) • Escherichia coli (ATCC 8739) • Pseudomonas aeruginosa (ATCC 9027) • Burkholderia cepacia (ATCC 25416)
(§5) Fungi: • Incubation Temperature: • 25° C. (Candida albicans) • 35° C. […] . All solubilized and pH 4.5-adjusted test compounds were filter-sterilized before subjecting to MIC study. Positive control was also dissolved in the similar way. […] All the strains were inoculated on their respective agar medium and incubated under conditions/durations detailed above. • Preparation of inoculum: • The bacterial colony suspension in 0.85% saline was adjusted to 1 McFarland's standard using Densimat which was further diluted to 1:100 in CAMHB. The fungal suspension for inoculation was prepared in 0.85% saline from 6 days old culture (for mold, A. brasiliensis) and from 2 days old culture (for yeast, C. albicans) from Sabouraud Dextrose agar medium. Culture was scrapped/scooped from the plate, suspended in saline and the spores/cells counted using haemocytometer to provide a final inoculum of 5×10^4 cfu/mL. • 96-well Plate Preparation: • Minimum inhibitory concentration (MIC) is performed to determine potency of test compounds along with standard antibiotics against bacterial strains. Micro titer plates were prepared as per the CLSI recommendations. One hundred and seventy five microliters of Cation-adjusted Muller Hinton Broth (CAMHB) was added to the first column of a 96 well flat bottom plate, which is the media control. Second column is for the stocks of the test compounds and reference standards from which dilutions are made. Then 175 μL of CAMHB was added to the 5th, 8th and 11th columns, 75 μL of CAMHB to the 4th, 7th and 10th columns and 50 μL of CAMHB to the 3rd, 6th and 9th columns and the last column was the organism control. Antimicrobial Efficacy Testing

[2] = Determination of Aqueous Solubility (pH-4.5) by Miniaturized Shake Flask Method; assay type: physicochemical; conditions: ultrapure water pH 4.5, 22° C., highest test concentration 1% w/v
Protocol: Determination of Aqueous Solubility (pH-4.5) by Miniaturized Shake Flask Method
Test Media: Ultrapure water (pH-4.5) (18MΩDl water)
Test Concentration: 10 mg/ml
Incubation Details: 22° C. +/−3° C.
Method of Analysis: Photometric analysis using Microplate reader
Data Output: Aqueous Solubility
Required volume of ultrapure water (˜75 mL) was taken and pH was adjusted to 4.5 using citrate buffer (pH-4.5). This water was used as a test media for determining the solubility of test/reference items.
Solubility Testing by Shake Flask Method
The solubility of test items were determined at a highest test concentration of 1% w/v (10 mg/mL).
40 mg of test items were weighed into tubes.
4 mL of Ultrapure water was added to all tubes to get a concentration of 10 mg/mL (1% w/v).
The initial pH of the solubility samples were recorded. […] Then, the solution were observed visually for any precipitation.
The visually soluble samples were centrifuged at 10000 rpm for 10 minutes at room temperature (22° C.±3° C.).
An aliquot of the supernatant were diluted with equal volume of methanol. The samples were further diluted in methanol: water (50:50) to obtain dilution of 1:2, 1:4, 1:16, 1:32 etc.
The samples were then transferred to UV plate and scanned at Amax of that particular test/reference item.

[3] = tested on: Burkholderia cepacia (ATCC 25416); test: Anti-bacterial MIC, microbroth dilution; assay type: cell-based; conditions: pH 4.5, CAMHB, 37° C., 24 hours
Protocol: as §1, §2, §3, §4, §5

[4] = tested on: Escherichia coli (ATCC 8739); test: Anti-bacterial MIC, microbroth dilution; assay type: cell-based; conditions: pH 4.5, CAMHB, 37° C., 24 hours
Protocol: as §1, §2, §3, §4, §5

[5] = tested on: Staphylococcus aureus (ATCC 6538); test: Anti-bacterial MIC, microbroth dilution; assay type: cell-based; conditions: pH 4.5, CAMHB, 37° C., 24 hours
Protocol: as §1, §2, §3, §4, §5

[6] = tested on: Aspergillus brasiliensis (ATCC 16404); test: Anti-fungal MIC, microbroth dilution; assay type: cell-based; conditions: pH 4.5, RPMI-1640, 35° C., 48 hours
Protocol: as §1, §2, §3, §5

[7] = tested on: Candida albicans (ATCC 10231); test: Anti-fungal MIC, microbroth dilution; assay type: cell-based; conditions: pH 4.5, RPMI-1640, 25° C., 48 hours
Protocol: as §1, §2, §3, §5

[8] = tested on: various bacteria and fungi; test: Antimicrobial Efficacy Testing (USP 51), overall outcome; assay type: cell-based; conditions: USP 51, 28 days
Text: The Antimicrobial Efficacy Testing discussed herein was completed pursuant to the standard antimicrobial effectiveness test from Chapter 51 of the United States Pharmacopeia (USP 51), in which an antimicrobial composition can be tested against at least five microorganisms, including bacteria and fungi. In the Antimicrobial Efficacy Testing conducted herein, the following bacteria were utilized: Staphylococcus aureus, Escherichia coli, Pseudomonas aeruginosa, and Burkholderia cepacia; and the following fungi were utilized: Candida albicans, and Aspergillus brasiliensis. While one of ordinary skill in the art could replicate such Antimicrobial Efficacy Testing by completing USP 51 protocol, a brief summary was that each antimicrobial composition sample was tested against each microorganism being held at room temperature over the course of 28 days, with each sample being evaluated at specific intervals at the beginning of the Testing (initial), day 7, day 14, and day 28. The test sample colonies were counted at each interval to determine the number of surviving microorganisms. The log reduction of each microorganism at each interval was reported. The effectiveness of the antimicrobial agent sample was based on the USP 51 passing criteria.

| Molecule | MIC v. P. aeruginosa [1] | Solubility (wt %) [2] | MIC (%) B. cepacia [3] | MIC (%) E. coli [4] | MIC (%) P. aeruginosa [1] | MIC (%) S. Aureus [5] | MIC (%) A. brasiliensis [6] | MIC (%) C. albicans [7] | Antimicrobial Efficacy Testing outcome (inhibiting growth of various bacteria and fungi) [8] |
| --- | --- | --- | --- | --- | --- | --- | --- | --- | --- |
| CC1(C)C(=O)N(CO)C(=O)N1CO [DMDM Hydantoin, reference compound] | 0.02% | – | – | – | – | – | – | – | – |
| Cn1sccc1=O [Methylisothiazolinone, reference compound] | 0.00% | – | – | – | – | – | – | – | – |
| Propylhydroxamic Acid [reference compound] | 0.50% | – | – | – | – | – | – | – | – |
| CC(=O)C1C(=O)C=C(C)OC1=O (stereo not shown) [Dehydroacetic Acid, reference compound] | 2.00% | – | – | – | – | – | – | – | – |
| COC(=O)c1ccc(O)cc1 [Methylparaben, reference compound] | 0.20% | – | – | – | – | – | – | – | – |
| CCCCCC(=O)NO [Compound No. 1, Hexylhydroxamic Acid] | 0.06% | >1.00 wt % | 0.0625% | 0.125% | 0.0625% | 0.25% | 0.008% | 0.031% | – |
| OCc1ccccc1 [Benzyl Alcohol, reference compound] | 0.35% | – | – | – | – | – | – | – | – |
| OCCc1ccccc1 [Phenethyl Alcohol, reference compound] | 0.41% | – | – | – | – | – | – | – | – |
| CCCCCCCCCCCC(=O)NO [compound 2, Laurylhydroxamic Acid] | – | 0.0022 wt % | >0.0011* % | >0.0011* % | >0.0011* % | >0.0011* % | >0.0011* % | >0.0011* % | – |
| O=C(O)c1ccccc1 [Benzoic Acid, reference compound] | 0.07% | – | – | – | – | – | – | – | – |
| O=C(NCO)N(CO)C1(CO)C(=O)NC(=O)N1CO (stereo not shown) [Diazolidinyl Urea, reference compound] | 0.10% | – | – | – | – | – | – | – | – |
| CCCCCCCC(=O)NO [Caprylhydroxamic Acid, reference compound] | 0.07% | 0.1358 wt % | 0.017% | 0.017% | 0.0679% | 0.034% | 0.004% | 0.008% | – |
| O=C(NO)c1ccc(O)cc1 [Compound No. 6, p-hydroxy Benzhydroxamic Acid] | 0.06% | >1.00 wt % | 0.031% | 0.0625% | 0.0625% | 0.125% | 0.25% | >1.00* % | – |
| O=[N+]([O-])C(Br)(CO)CO [2-Bromo-2-Nitropropane-1,3-Diol, reference compound] | 0.00% | – | – | – | – | – | – | – | – |
| O=C(CCCCCCC(=O)NO)NO [Compound No. 9, N, N′-dihydroxyoctanediamide] | >0.12%* | 0.248 wt % | >0.124* % | >0.124* % | >0.124* % | >0.124* % | >0.124* % | >0.124* % | did not pass |
| O=C(CC(O)C(=O)NO)NO (stereo not shown) [Compound No. 7, N, N′, 2-trihydroxy butane diamide] | 0.03% | >1.00 wt % | 0.016% | 0.016% | 0.031% | 0.008% | 0.008% | 0.008% | – |
| O=C(CCC(=O)NO)NO [Compound No. 8, N, N′-dihydroxysuccinamide] | 0.06% | >1.00 wt % | 0.031% | 0.031% | 0.0625% | 0.016% | 0.031% | 0.25% | – |
| O=C(NO)c1ccccc1 [Compound No. 5, Benzhydroxamic Acid] | 0.06% | >1.00 wt % | 0.125% | 0.25% | 0.0625% | 0.125% | 0.016% | 0.031% | – |
| CCCCCCCCCC(=O)NO [Compound No. 3, Decylhydroxamic Acid] | >0.00125%* | 0.0025 wt % | >0.00125* % | >0.00125* % | >0.00125* % | >0.00125* % | >0.00125* % | >0.00125* % | – |
